Key:
Details in all cases: 0.1 µM; binder
CAMKK2 = CAMKK2 (Homo sapiens, UniProt Q96RR4)
EGFR(G719S) = EGFR(G719S) (Homo sapiens, UniProt P00533, G719S)
MYLK3 = MYLK3 (Homo sapiens, UniProt Q32MK0)
MEK1 = MEK1 (Homo sapiens, UniProt Q02750)
FLT4 = FLT4 (Homo sapiens, UniProt P35916)
ASK1 = ASK1 (Homo sapiens, UniProt Q99683)
RET(V804M) = RET(V804M) (Homo sapiens, UniProt P07949, V804M)
EPHA7 = EPHA7 (Homo sapiens, UniProt Q15375)
INSRR = INSRR (Homo sapiens, UniProt P14616)
CIT = CIT (Homo sapiens, UniProt O14578)
ALK(L1196M) = ALK(L1196M) (Homo sapiens, UniProt Q9UM73, L1196M)
PAK3 = PAK3 (Homo sapiens, UniProt O75914)
DAPK1 = DAPK1 (Homo sapiens, UniProt P53355)
TRKA = TRKA (Homo sapiens, UniProt P04629)
DSTYK = DSTYK (Homo sapiens, UniProt Q6XUX3)
CDK4 = CDK4 (Homo sapiens, UniProt P11802)
AKT1 = AKT1 (Homo sapiens, UniProt P31749)
KIT(L576P) = KIT(L576P) (Homo sapiens, UniProt P10721, L576P)
PRKCH = PRKCH (Homo sapiens, UniProt P24723)
ACVR1B = ACVR1B (Homo sapiens, UniProt P36896)
HIPK4 = HIPK4 (Homo sapiens, UniProt Q8NE63)
BRK = BRK (Homo sapiens, UniProt Q13882)
TGFBR1 = TGFBR1 (Homo sapiens, UniProt P36897)
BUB1 = BUB1 (Homo sapiens, UniProt O43683)
KIT(V559D) = KIT(V559D) (Homo sapiens, UniProt P10721, V559D)
PIK3C2B = PIK3C2B (Homo sapiens, UniProt O00750)
MAP3K12 = MAP3K12 (Homo sapiens, UniProt Q12852)
FLT3(ITD) = FLT3(ITD) (Homo sapiens, UniProt P36888)
ANKK1 = ANKK1 (Homo sapiens, UniProt Q8NFD2)
ROCK2 = ROCK2 (Homo sapiens, UniProt O75116)
CLK1 = CLK1 (Homo sapiens, UniProt P49759)

PRKCH, sequence (P24723 whole entry): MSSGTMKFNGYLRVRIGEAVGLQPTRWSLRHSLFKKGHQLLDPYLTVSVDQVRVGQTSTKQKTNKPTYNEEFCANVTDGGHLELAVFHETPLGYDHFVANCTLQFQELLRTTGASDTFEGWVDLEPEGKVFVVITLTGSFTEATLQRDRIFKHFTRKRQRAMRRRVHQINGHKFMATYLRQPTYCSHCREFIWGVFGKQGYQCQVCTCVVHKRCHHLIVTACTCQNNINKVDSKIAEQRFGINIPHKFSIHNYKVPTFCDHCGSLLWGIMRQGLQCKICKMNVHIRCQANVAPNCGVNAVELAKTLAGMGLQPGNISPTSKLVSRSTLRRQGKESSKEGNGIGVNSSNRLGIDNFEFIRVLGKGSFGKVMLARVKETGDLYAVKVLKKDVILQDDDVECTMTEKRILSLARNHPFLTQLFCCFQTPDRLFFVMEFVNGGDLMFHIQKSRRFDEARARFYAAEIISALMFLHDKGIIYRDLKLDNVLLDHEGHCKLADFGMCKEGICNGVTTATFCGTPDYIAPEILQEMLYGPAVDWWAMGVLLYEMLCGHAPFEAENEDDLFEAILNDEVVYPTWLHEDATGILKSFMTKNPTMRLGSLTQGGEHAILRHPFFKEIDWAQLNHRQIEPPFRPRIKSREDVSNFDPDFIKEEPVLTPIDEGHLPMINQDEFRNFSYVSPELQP
CAMKK2, sequence (Q96RR4 whole entry): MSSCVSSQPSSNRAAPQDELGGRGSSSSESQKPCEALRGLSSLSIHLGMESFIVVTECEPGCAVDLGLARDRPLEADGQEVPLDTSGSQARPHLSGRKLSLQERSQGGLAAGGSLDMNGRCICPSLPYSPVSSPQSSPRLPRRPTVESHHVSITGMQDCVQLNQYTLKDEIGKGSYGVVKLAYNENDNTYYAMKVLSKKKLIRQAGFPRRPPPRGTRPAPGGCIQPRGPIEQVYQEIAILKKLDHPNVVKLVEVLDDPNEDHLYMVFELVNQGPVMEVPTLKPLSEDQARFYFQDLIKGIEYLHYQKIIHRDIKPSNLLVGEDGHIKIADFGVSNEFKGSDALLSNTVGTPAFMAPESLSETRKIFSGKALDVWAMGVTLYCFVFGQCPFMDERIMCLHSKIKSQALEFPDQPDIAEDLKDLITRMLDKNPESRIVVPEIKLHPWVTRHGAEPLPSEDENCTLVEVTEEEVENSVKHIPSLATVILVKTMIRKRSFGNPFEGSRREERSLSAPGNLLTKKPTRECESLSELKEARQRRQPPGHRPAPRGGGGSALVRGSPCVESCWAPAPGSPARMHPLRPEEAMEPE
ROCK2, sequence (O75116 whole entry): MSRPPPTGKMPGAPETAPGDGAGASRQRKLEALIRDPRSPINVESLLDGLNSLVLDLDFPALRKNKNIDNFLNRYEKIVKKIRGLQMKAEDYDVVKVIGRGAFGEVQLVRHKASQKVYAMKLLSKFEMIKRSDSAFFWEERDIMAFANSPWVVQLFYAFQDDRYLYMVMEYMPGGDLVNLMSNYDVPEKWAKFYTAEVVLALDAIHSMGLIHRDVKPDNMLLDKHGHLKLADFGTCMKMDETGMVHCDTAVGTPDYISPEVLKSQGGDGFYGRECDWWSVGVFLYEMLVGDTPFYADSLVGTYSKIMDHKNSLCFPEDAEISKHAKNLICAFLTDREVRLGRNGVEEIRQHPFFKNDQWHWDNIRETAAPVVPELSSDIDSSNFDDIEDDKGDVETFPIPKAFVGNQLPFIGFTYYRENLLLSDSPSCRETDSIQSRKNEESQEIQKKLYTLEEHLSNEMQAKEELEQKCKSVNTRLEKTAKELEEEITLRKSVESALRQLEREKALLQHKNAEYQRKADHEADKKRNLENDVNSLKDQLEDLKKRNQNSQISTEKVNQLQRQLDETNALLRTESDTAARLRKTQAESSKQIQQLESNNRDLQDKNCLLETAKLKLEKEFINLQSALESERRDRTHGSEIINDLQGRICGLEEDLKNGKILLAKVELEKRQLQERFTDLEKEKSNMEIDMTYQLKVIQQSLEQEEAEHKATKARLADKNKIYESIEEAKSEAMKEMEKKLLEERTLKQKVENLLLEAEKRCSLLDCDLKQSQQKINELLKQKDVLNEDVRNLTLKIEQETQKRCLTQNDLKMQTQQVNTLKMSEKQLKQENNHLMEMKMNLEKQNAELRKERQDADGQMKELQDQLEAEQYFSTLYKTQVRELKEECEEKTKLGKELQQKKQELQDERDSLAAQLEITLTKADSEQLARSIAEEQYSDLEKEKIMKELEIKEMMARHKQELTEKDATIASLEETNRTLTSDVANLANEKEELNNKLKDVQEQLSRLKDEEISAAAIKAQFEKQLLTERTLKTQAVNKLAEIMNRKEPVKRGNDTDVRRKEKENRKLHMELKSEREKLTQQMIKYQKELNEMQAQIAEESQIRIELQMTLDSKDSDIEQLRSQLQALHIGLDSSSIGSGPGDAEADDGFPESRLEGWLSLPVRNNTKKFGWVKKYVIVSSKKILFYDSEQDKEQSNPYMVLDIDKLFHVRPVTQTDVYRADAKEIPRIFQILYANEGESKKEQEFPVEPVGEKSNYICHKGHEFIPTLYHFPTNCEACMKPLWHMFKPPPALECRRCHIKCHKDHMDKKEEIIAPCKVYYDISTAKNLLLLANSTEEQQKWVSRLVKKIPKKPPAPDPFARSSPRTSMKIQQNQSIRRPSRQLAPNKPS
KIT(L576P), sequence (P10721 whole entry L576P): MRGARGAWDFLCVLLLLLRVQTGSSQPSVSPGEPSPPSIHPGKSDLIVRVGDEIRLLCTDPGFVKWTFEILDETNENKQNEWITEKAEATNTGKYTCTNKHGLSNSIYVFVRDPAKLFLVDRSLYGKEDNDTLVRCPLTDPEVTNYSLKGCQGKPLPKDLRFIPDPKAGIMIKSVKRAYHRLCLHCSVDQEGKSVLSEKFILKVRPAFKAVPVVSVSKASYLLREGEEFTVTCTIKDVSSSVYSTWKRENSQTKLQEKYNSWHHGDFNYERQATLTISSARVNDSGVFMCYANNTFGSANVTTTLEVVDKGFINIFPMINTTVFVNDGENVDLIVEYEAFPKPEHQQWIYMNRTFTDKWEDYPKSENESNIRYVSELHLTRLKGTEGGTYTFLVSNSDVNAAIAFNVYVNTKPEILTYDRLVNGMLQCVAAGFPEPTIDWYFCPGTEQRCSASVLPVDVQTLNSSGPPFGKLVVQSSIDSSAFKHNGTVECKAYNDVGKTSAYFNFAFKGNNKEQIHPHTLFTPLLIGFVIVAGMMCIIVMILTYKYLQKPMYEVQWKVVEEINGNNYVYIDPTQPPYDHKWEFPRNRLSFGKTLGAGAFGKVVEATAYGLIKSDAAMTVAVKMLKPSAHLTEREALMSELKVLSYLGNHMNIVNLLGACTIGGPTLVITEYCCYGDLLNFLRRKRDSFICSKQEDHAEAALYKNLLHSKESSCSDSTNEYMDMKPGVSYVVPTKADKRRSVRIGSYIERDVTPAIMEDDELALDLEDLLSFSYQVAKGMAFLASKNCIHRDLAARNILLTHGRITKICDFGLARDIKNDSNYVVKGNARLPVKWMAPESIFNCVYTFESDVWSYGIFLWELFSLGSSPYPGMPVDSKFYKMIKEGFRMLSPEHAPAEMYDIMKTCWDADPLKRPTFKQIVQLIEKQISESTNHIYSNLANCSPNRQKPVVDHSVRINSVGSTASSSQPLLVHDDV
TGFBR1, sequence (P36897 whole entry): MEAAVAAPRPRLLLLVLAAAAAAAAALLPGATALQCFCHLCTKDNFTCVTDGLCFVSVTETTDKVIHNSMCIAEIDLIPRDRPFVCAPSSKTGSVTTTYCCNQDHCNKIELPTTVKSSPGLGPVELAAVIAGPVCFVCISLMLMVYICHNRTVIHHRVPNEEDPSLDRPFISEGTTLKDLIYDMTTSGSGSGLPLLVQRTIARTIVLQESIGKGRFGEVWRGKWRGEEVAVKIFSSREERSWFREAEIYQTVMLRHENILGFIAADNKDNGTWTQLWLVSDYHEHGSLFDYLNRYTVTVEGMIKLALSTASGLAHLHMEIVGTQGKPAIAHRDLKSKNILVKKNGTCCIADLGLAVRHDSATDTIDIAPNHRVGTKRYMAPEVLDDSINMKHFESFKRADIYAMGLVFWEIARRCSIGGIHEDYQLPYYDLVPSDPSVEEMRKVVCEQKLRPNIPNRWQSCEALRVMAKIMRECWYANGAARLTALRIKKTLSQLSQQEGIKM
TRKA, sequence (P04629 whole entry): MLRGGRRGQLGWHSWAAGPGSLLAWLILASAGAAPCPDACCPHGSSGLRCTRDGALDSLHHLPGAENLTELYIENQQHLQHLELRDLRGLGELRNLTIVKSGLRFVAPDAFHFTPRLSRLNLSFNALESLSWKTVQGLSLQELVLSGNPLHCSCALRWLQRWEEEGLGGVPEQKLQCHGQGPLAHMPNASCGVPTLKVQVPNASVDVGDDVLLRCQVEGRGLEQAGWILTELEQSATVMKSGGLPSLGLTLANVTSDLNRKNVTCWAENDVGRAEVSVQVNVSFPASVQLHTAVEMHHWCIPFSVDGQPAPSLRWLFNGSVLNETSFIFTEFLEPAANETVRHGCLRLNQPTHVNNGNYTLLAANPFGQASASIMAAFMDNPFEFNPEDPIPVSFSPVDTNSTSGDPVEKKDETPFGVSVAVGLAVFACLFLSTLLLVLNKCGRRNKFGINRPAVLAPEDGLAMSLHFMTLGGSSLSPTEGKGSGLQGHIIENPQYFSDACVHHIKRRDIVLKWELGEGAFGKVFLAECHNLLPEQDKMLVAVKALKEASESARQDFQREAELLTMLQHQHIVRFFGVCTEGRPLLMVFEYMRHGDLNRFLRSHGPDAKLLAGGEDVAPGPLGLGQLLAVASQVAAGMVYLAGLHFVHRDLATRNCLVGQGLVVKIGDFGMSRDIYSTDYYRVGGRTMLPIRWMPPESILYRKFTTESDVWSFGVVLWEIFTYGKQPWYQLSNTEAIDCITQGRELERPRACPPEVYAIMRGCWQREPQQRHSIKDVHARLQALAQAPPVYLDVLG
KIT(V559D), sequence (P10721 whole entry V559D): as the sequence (P10721 whole entry L576P) above, with V559D, P576L counted along it

## CNc1ncc2cc(-c3ccc(-c4cccc(C)n4)cc3Cl)c(=O)n(C[C@H]3OC[C@H](N)CO3)c2n1 [compound 6, G-5555]
CAMKK2
  Percent Control: 100%
EGFR(G719S)
  Percent Control: 100%
MYLK3
  Percent Control: 74%
MEK1
  Percent Control: 24%
FLT4
  Percent Control: 100%
ASK1
  Percent Control: 99%
RET(V804M)
  Percent Control: 86%
EPHA7
  Percent Control: 100%
INSRR
  Percent Control: 100%
CIT
  Percent Control: 100%
ALK(L1196M)
  Percent Control: 100%
PAK3
  Percent Control: 100%
DAPK1
  Percent Control: 100%
TRKA
  Percent Control: 77%
DSTYK
  Percent Control: 90%
CDK4
  Percent Control: 100%
AKT1
  Percent Control: 100%
KIT(L576P)
  Percent Control: 100%
PRKCH
  Percent Control: 82%
ACVR1B
  Percent Control: 100%
HIPK4
  Percent Control: 95%
BRK
  Percent Control: 100%
TGFBR1
  Percent Control: 99%
BUB1
  Percent Control: 100%
KIT(V559D)
  Percent Control: 99%
PIK3C2B
  Percent Control: 88%
MAP3K12
  Percent Control: 100%
FLT3(ITD)
  Percent Control: 100%
ANKK1
  Percent Control: 91%
ROCK2
  Percent Control: 94%
CLK1
  Percent Control: 100%

— doi:10.1101/2021.04.08.439011v1 (biorxiv, 2021)
